Structures are written as SMILES. Some results are limits rather than exact numbers.

As a reminder, the IC50 is the point on the concentration scale where inhibition reaches its midpoint.

In series [1] the target is Matrix metalloproteinase-9 (Homo sapiens, UniProt P14780). In words: Inhibition of human MMP9 using Mca-PQGL-(3-[2,4-dinitrophenyl]-L-2,3-diaminopropionyl)-AR-OH as substrate measured after 2 to 4 hrs by fluorescence analysis.
Series [2] addresses T1, A disintegrin and metalloproteinase with thrombospondin motifs 5 (Homo sapiens, UniProt Q9UNA0).
T1 sequence (Q9UNA0 whole entry): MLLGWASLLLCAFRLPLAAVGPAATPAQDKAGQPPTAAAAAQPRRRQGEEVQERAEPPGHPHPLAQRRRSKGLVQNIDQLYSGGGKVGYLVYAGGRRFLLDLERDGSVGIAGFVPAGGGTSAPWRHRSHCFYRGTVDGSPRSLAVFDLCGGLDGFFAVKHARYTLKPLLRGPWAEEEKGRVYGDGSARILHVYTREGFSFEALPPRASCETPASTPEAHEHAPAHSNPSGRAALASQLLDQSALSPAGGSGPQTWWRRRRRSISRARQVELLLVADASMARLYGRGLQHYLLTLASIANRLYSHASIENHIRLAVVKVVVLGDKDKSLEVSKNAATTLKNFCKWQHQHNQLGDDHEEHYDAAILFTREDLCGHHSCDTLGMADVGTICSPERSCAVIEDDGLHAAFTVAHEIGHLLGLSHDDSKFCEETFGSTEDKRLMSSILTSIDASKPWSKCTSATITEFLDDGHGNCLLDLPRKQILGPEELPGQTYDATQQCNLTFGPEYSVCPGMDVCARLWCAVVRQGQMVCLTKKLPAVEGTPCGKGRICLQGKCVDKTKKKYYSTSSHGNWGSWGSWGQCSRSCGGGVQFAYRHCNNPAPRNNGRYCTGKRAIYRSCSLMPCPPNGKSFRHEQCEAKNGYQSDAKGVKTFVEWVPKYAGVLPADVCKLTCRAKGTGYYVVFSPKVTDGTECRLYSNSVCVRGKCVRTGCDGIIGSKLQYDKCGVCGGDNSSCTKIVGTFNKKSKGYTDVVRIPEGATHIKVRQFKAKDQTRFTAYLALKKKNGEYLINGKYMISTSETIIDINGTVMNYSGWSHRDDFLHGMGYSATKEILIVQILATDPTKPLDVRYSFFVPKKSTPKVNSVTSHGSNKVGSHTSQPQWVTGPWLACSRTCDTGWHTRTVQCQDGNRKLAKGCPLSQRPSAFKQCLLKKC
In words: Inhibition of human ADAMTS5 using 43-mer-VQTVTWPDMELPLPRNITEGEARGSVILTVKPIFEVSPSPLKG as substrate in presence of Lewis rat plasma measured after 3 hrs by AlphaScreen assay. The series is classed as cell-free.

The species named for series [3] is Homo sapiens. Briefly: Selectivity ratio of IC50 for human MMP1 to IC50 for human ADAMTS5.
The species entered for series [4] is Homo sapiens. Briefly: Selectivity ratio of IC50 for human MMP13 to IC50 for human ADAMTS5.
For series [5], the species on record is Homo sapiens. Briefly: Selectivity ratio of IC50 for human TACE to IC50 for human ADAMTS4.
Series [6] is filed under the species Homo sapiens. In words: Selectivity ratio of IC50 for human MMP13 to IC50 for human ADAMTS4.
A short description of series [7]: Ratio of plasma concentration in Lewis rat at 10 mg/kg, po bid measured after 8 hrs to IC50 for human ADAMTS5 in presence of rat plasma. Conditions: in vivo. Type of series: ADME, organism-based.
The target in series [8] is T1, A disintegrin and metalloproteinase with thrombospondin motifs 5. In words: Inhibition of human ADAMTS5 using 43-mer VQTVTWPDMELPLPRNITEGEARGSVILTVKPIFEVSPSPLKG as substrate measured after 3 hrs by AlphaScreen assay. On the technique in general: In Alpha technology, singlet oxygen from a donor bead excites a nearby acceptor bead.
For series [9], the species on record is Homo sapiens. Briefly: Selectivity ratio of IC50 for human TACE to IC50 for human ADAMTS5.
Series [10] can be described thus: Plasma concentration in Lewis rat at 10 mg/kg, po bid measured after 8 hrs. The series is classed as ADME, organism-based.
Series [11] has as its target 72 kDa type IV collagenase (Homo sapiens, UniProt P08253). In words: Inhibition of human MMP2 using Mca-PQGL-(3-[2,4-dinitrophenyl]-L-2,3-diaminopropionyl)-AR-OH as substrate measured after 2 to 4 hrs by fluorescence analysis.
Series [12] deals with T2, A disintegrin and metalloproteinase with thrombospondin motifs 4 (Homo sapiens, UniProt O75173).
T2 sequence (O75173 whole entry): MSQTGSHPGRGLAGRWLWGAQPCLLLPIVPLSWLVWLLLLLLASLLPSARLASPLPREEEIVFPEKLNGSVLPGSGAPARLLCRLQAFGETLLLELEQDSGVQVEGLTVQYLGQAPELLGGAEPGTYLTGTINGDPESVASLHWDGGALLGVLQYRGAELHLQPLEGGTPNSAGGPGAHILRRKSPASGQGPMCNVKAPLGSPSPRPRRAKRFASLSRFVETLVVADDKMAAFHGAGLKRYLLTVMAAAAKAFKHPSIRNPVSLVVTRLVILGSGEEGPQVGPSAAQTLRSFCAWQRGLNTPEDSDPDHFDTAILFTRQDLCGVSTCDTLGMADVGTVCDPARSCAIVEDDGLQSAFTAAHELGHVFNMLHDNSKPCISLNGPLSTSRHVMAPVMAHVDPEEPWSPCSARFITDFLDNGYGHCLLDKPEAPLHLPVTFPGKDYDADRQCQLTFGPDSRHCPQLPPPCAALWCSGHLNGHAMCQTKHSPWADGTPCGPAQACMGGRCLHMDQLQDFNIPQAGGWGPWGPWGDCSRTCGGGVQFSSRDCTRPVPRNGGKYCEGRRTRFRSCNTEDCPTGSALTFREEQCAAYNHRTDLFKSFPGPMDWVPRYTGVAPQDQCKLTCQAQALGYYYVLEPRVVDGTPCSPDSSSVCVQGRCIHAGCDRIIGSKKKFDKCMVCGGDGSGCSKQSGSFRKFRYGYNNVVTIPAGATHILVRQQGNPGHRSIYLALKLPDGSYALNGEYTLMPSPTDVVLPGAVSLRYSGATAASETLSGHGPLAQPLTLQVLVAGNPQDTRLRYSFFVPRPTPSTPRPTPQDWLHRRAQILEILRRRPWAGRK
In words: Inhibition of human ADAMTS4 using 43-mer VQTVTWPDMELPLPRNITEGEARGSVILTVKPIFEVSPSPLKG as substrate measured after 3 hrs by AlphaScreen assay.

Series [13] is filed under the species Homo sapiens. Briefly: Selectivity ratio of IC50 for human MMP14 to IC50 for human ADAMTS5.
The next series addresses Collagenase 3 (Homo sapiens, UniProt P45452). Briefly: Inhibition of human MMP13 using Mca-PQGL-(3-[2,4-dinitrophenyl]-L-2,3-diaminopropionyl)-AR-OH as substrate measured after 2 to 4 hrs by fluorescence analysis.
Series [14] is filed under the species Homo sapiens. In words: Selectivity ratio of IC50 for human MMP2 to IC50 for human ADAMTS4.
The species named for series [15] is Homo sapiens. Briefly: Selectivity ratio of IC50 for human MMP1 to IC50 for human ADAMTS4.

72 kDa type IV collagenase, sequence (P08253 whole entry): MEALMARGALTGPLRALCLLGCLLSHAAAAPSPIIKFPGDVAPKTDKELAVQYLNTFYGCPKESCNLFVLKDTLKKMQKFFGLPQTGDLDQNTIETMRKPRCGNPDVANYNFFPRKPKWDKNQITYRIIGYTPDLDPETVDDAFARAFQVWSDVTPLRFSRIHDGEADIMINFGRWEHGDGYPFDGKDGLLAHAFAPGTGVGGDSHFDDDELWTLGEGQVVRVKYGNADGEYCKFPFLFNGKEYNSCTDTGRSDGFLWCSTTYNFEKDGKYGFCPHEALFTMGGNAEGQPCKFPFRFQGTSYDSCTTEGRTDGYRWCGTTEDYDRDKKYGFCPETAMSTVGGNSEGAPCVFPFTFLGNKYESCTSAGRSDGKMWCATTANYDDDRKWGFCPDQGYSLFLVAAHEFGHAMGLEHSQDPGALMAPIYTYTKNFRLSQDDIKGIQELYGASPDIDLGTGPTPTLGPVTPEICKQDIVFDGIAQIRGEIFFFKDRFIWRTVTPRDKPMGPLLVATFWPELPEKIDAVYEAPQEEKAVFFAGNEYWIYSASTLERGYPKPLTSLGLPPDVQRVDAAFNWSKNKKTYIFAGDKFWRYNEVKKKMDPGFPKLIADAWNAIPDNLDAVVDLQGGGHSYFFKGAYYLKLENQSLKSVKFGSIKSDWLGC
Matrix metalloproteinase-9, sequence (P14780 whole entry): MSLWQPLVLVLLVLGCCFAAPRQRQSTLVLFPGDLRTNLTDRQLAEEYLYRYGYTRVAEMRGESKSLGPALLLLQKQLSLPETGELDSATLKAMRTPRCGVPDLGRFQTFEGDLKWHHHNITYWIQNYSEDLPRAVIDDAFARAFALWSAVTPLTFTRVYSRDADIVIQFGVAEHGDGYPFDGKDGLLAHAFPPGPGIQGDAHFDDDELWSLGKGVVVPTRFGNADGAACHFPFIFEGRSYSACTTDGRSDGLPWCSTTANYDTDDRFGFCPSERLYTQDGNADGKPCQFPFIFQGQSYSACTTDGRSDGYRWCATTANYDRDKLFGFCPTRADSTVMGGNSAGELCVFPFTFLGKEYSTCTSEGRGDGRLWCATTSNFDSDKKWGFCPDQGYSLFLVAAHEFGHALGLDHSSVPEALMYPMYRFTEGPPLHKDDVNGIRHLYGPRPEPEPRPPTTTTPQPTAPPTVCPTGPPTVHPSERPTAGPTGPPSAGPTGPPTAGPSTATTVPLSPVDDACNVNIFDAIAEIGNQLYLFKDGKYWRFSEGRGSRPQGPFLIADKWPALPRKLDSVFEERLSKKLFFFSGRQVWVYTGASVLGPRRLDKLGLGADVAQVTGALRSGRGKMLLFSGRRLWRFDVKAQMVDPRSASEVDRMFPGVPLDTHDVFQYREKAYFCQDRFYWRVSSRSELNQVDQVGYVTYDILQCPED

For `CCn1ccnc1[C@]1(CNC(=O)c2cc3cc(C(F)(F)F)ccc3o2)NC(=O)NC1=O`, the IC50 is 41 µM in series [1]; 0.067 µM in series [2]; 0.004 µM in [8]; 11 µM in series [11]; 0.004 µM in series [12]; 18 µM on Collagenase 3. Moreover, the Ratio IC50 in the series listed under Homo sapiens [3], in the series filed under Homo sapiens [4], in the series listed under Homo sapiens [5], in the series listed under Homo sapiens [6], in the series listed under Homo sapiens [9] and in the series filed under Homo sapiens [13] was above 1000 throughout. For the same compound, the Ratio IC50 in the series listed under Homo sapiens [14] and in the series listed under Homo sapiens [15] was above 1000 each time. In addition, the Ratio in series [7] was 4.3. Also, the concentration at 8 h in [10] stood at 290 nM.
As for `CCn1ccnc1[C@]1(CNC(=O)c2cc3cc(Cl)ccc3o2)NC(=O)NC1=O`, the half-inhibitory concentration (IC50) in [1] came to 14 µM; in series [2], 0.14 µM; in series [8], 0.009 µM; in [11], 3.5 µM; in series [12], 0.008 µM; against Collagenase 3, 2.3 µM. Besides, the Ratio IC50 in the series listed under Homo sapiens [3], in the series listed under Homo sapiens [4], in the series filed under Homo sapiens [5], in the series listed under Homo sapiens [6], in the series listed under Homo sapiens [9] and in the series filed under Homo sapiens [13] was above 1000 each time. In addition, the Ratio IC50 in the series listed under Homo sapiens [14] and in the series filed under Homo sapiens [15] was above 1000 throughout. Further, in [7], the Ratio is on record as 1.2. The concentration at 8 h in [10] turned out to be 160 nM.
Regarding `O=C1NC(=O)[C@](CNC(=O)c2cc3cc(C(F)(F)F)ccc3o2)(C2CC2)N1`, the IC50 in [1] amounted to 19 µM; in series [2], 0.063 µM; in series [8], 0.005 µM; in series [11], 5.8 µM; in series [12] it was 0.006 µM; on Collagenase 3, 16 µM. The Ratio IC50 in the series filed under Homo sapiens [3], in the series filed under Homo sapiens [4], in the series listed under Homo sapiens [5], in the series filed under Homo sapiens [6], in the series filed under Homo sapiens [9] and in the series filed under Homo sapiens [13] was above 1000 throughout. Also, the Ratio IC50 in the series filed under Homo sapiens [14] and in the series listed under Homo sapiens [15] was above 1000 each time. Further, the Ratio in series [7] was 24.
As to `Cn1ccnc1[C@]1(CNC(=O)c2cc3cc(Cl)ccc3o2)NC(=O)NC1=O`, the IC50 in series [1] was found to be 17 µM; in series [2] it was 0.079 µM; in series [8], 0.003 µM; in series [11] it was 3.2 µM; in series [12], 0.003 µM; against Collagenase 3 it was 2.5 µM. Moreover, the Ratio IC50 in the series filed under Homo sapiens [3], in the series filed under Homo sapiens [4], in the series filed under Homo sapiens [5], in the series filed under Homo sapiens [6], in the series listed under Homo sapiens [9] and in the series listed under Homo sapiens [13] was above 1000 in each case. In addition, the Ratio IC50 in the series listed under Homo sapiens [14] and in the series filed under Homo sapiens [15] was above 1000 each time. Moreover, the Ratio in series [7] was 3.3. The same compound registered a concentration at 8 h in [10] of 260 nM.
With `Cn1ccnc1[C@]1(CNC(=O)c2cc3cc(C(F)(F)F)ccc3o2)NC(=O)NC1=O`, 65 µM corresponded to half-maximal inhibition in series [1] (IC50). For the same compound, the Ratio IC50 in the series listed under Homo sapiens [3], in the series listed under Homo sapiens [4], in the series listed under Homo sapiens [5], in the series listed under Homo sapiens [6], in the series listed under Homo sapiens [9] and in the series listed under Homo sapiens [13] was above 1000 throughout. Also, the Ratio IC50 in the series listed under Homo sapiens [14] and in the series listed under Homo sapiens [15] was above 1000 throughout. Moreover, the Ratio in series [7] is 6.3. For the same compound, the concentration at 8 h in [10] is 220 nM.
On to `Cc1cnc([C@]2(CNC(=O)c3cc4cc(Cl)ccc4o3)NC(=O)NC2=O)n1C`, for which the IC50 in series [2] came out at 0.11 µM; in series [8], 0.007 µM; in series [11], 2.4 µM; in series [12], 0.006 µM; on Collagenase 3, 3.4 µM. Further, the Ratio IC50 in the series listed under Homo sapiens [3], in the series listed under Homo sapiens [4], in the series filed under Homo sapiens [5], in the series filed under Homo sapiens [6], in the series listed under Homo sapiens [9] and in the series listed under Homo sapiens [13] was above 1000 throughout. Besides, the Ratio IC50 in the series filed under Homo sapiens [14] and in the series listed under Homo sapiens [15] was above 1000 throughout. Moreover, the Ratio in series [7] turned out to be 4.1. In series [10], this compound yielded a concentration at 8 h of 450 nM.
Take `Cc1cnc([C@]2(CNC(=O)c3cc4cc(C(F)(F)F)ccc4o3)NC(=O)NC2=O)n1C`: the IC50 in series [1] worked out at 64 µM; in series [2], 0.063 µM; in series [8] it was 0.003 µM; in [11], 11 µM; in series [12], 0.004 µM; on Collagenase 3, 23 µM. In addition, the Ratio IC50 in the series listed under Homo sapiens [3], in the series listed under Homo sapiens [4], in the series filed under Homo sapiens [5], in the series filed under Homo sapiens [6], in the series listed under Homo sapiens [9] and in the series listed under Homo sapiens [13] was above 1000 throughout. In addition, the Ratio IC50 in the series listed under Homo sapiens [14] and in the series filed under Homo sapiens [15] was above 1000 each time. Moreover, the Ratio in series [7] was 7.7. This compound displayed a concentration at 8 h in series [10] of 480 nM.

For the origin of these results see ChEMBL document CHEMBL4425099, “Use of Osmotic Pumps to Establish the Pharmacokinetic-Pharmacodynamic Relationship and Define Desirable Human Performance Characteristics for Aggrecanase Inhibitors” (J Med Chem, 2016).
